Data reported in patent US20220000871A1, “METHODS AND COMPOSITIONS FOR TREATING NEURODEGENERATIVE DISEASES USING MODULATORS OF PHOSPHOGLYCERATE KINASE 1 (PGK1) ACTIVITY” (UNIVERSITY OF IOWA RESEARCH FOUNDATION, priority 2019, published 2022).

What was measured:
MPTP-treated mice = test: MPTP mouse model; format: in vivo; details: SNc, western blot, FIG. 17B
Experimental: A) Schematic for experiments in panels B-K. C57BL/6 mice (8 week-old) received 4 i.p. injections of MPTP (20 mg/kg at 2 hr intervals) or vehicle on day 0. […] N=6. […] Quantification of TH protein normalized to control (C,D). N=6. E-G) Example of immunostaining of TH in SNc and striatum (E, scale bars, 500 μm SNc, 1 mm striatum). Quantification of TH-positive neurons in SNc (F) and TH intensity in the striatum (G). N=6. H,I) Dopamine (DA) content in striatum and SnC. N=6. J) Percentage of TH-positive neurons that were positive for TUNEL staining. N=6. K) Behavioral response of mice in rotarod test. Data are duration that mice remained on an accelerated rolling rod normalized to mice at day 0. N=8. Data are examples and mean±SEM. […] Statistical analysis at day 7 and day 14 was Mann-Whitney. In the figure, *p<0.05, **p<0.01.
FIG. 10. […] A) Schematic of experiments in panels B-F. C57BL/6 mice (8 week-old) received 4 i.p. injections of MPTP (20 mg/kg at 2 hr intervals) or vehicle on day 0. […] B,C) Pyruvate and ATP levels in mouse SNc. N=6. D) Mitochondrial DNA (mDNA, 16S and ND1) relative to nuclear DNA (nDNA, intron β-globin) by quantitative PCR of mouse striatum and SNc. N=3. E,F) VDAC (E) and PHB1 (F) protein levels in striatum and SNc assayed by western blot and normalized to control. N=6.
FIG. 12. […] A) Schematic for experiments in panels B-J. C57BL/6 mice (8 week-old) received 4 i.p. injections of MPTP (20 mg/kg at 2 hr intervals) or vehicle on day 0. […] B) Example of TH immunostaining in the SNc on days 7 and 14. Scale bar, 500 μm. C-F) Measurement of DOPAC in mouse striatum (C) and SNc (D) and measurement of HVA in striatum (E) and SNc (F). (N=6). G) Example of TH and TUNEL co-staining in the SNc. TH (green), TUNEL (red), and DAPI (nuclei, blue). Scale bar, 25 μm. Quantitative data are in FIG. 2J. H) Left panels are Nissl staining of neurons in the striatum. Samples were obtained 7 days after MPTP injection. Right panels show the quantification. […] Scale bar, 400 μm. N=3 per group. I,J) Behavioral response of mice in the pole test. (I) Time mice took to turn their heads from upward to downward. (J) Time mice took to climb down the pole. N=8.
MPTP was injected (i.p.) on one day at 20 mg/kg for four times at 2-hour intervals, as previously described (4). […] At the end of the drug or saline treatment, behavioral tests including rotarod test and pole test were carried out before the animals were sacrificed.
The rotarod test was carried out using an automated rotarod (E103, UGO BASILE). At a fixed speed of 15 revolutions per minute (rpm), mice were pre-trained for two consecutive days until they were able to remain on the rod for more than 60 seconds. […] The latency to fall was recorded for a maximum recording time of 600 seconds. The behavior was monitored by a video camera.
This test was carried out by leaving a pole in the cage where the mice were housed. The pole test was performed on the 14th day after MPTP injection as previously described (9). The mouse was placed in a head-upward position on top of a vertical pole (diameter 8 mm, height 55 cm) with a ball (diameter 2.5 cm) on the head of the pole. The pole was wrapped with the nylon gauze to prevent the mouse from slipping down. Each mouse was trained twice before testing. The time that the mouse took to turn his head from upward to downward (Time: Turn) and the time the mouse took to reach the floor with his forepaws (Time: Locomotion Activity) were recorded. Each mouse was tested three times with 5 min. intervals, and the average time was quantified.

[1] = test system: M17 human neuroblastoma cells; test: Glycolysis and mitochondrial function in M17 cells; details: in vitro, 10 μM, 24 hr (ECAR)
Experimental: Cells were incubated with mild hypoxia for 12 hr before study. Cells were cultured in a sealed chamber (Stemcell Technologies Vancouver, Canada) that was flushed with a humidified gas mixture composed of 5% 02, 5% carbon dioxide (CO2), and 90% nitrogen (N2) for 12 hr. […] Assays of ATP, pyruvate, and citrate synthase activities (CS) were performed according to the manufacturer's instructions.
A Seahorse XV analyzer (XF^e-24, Seahorse Bioscience, Billerica, Mass., USA) was used to measure the oxygen consumption rate (OCR) and the extracellular acidification rate (ECAR) as previously described (18). The M17 cells and iPS cells were seeded in XF^e 24-well plates (Seahorse Bioscience), while the plates used for iPS cells were poly-D-lysine pre-coated. Assay medium was prepared by supplementing Seahorse XF^eBaseMedium minimal DMEM (Seahorse Bioscience) with 2 mM L-glutamine for a Glycolysis Stress Test assay or 2 mM L-glutamine, 1 mM pyruvate and 10 mM glucose for a Mito Stress Test assay (Sigma). pH was adjusted to 7.4 at 37° C. Probes (Seahorse Bioscience) were hydrated in the calibrant (Seahorse Bioscience) in a non-CO2 incubator at 37° C. overnight. Cells were washed twice with assay medium and kept in a non-CO2 incubator at 37° C. for 1 hr before analysis. Glucose, oligomycin and 2-deoxy-glucose (2-DG) were pre-loaded in the probe plate for Glycolysis Stress Test, while oligomycin, FCCP and a mixture of rotenone and antimycin A were used for Mito Stress Test.
Citrate synthase (CS) activity, LDH assay and pyruvate level were detected using commercial kits according to the manufacturer's directions. ATP content in animal tissues and M17 cells were detected with the ATP assay kit following the manufacturer's directions.

[2] = test system: Hela cell stably expressed FUS-GFP; test: Hela cells stably expressing FUS-GFP; format: cell-based
Description: FIG. 19. Relative ATP levels in Hela cells expressing FUS-GTP after treatment with alfazosin (AZ) and rotenone (Rot).
FIG. 20. Expression levels of FUS-GTP in cells treated with alfazosin (AZ), rotenone (Rot), and 17AAG, an inhibitor of the ATPase of HSP90.
FIG. 21. Fluorescence recovery of FUS-GTP in Hela cells after photobleaching.
We studied Hela cell stably expressed FUS-GFP to determine whether alfazosin (AZ) affected the molecule biology of FUS. (See FIG. 19). FUS forms phase-separated aggregates in cells and is commonly used to test agents that enhance or inhibit aggregate formation. The cells were maintained under mild hypoxic condition (5% oxygen), in which mitochondria function at their highest level. Alfazosin (AZ) was added in the culture medium with or without rotenone, a mitochondrial respiration inhibitor. 60 hours later, we measured the ATP level. The control (without AZ) is set as 1 (N=3).
We quantified FUS-GFP protein levels using actin as a protein loading control. (See FIG. 20). Rotenone (Rot) is a mitochondrial respiration inhibitor, 17AAG is an inhibitor of the ATPase of HSP90. The control level of FUS/actin is set as 1, and relative ratio of other treatment is compared.
(See FIG. 21). After 30 seconds photobleaching, the recovery of GFP signal was measured and plotted. N=10.

[3] = test system: Hek293T cells expressing APPswe-GFP; test: Hek293T cells transfected with APPswe-GFP; format: cell-based; details: 24 hours
Description: FIG. 22. Expression of amyloid precursor protein (APP) Swedish mutation tagged with GFP (APPswe-GFP) in transfected Hek293T cells. Left panel—expression of GFP in cells treated with alfazosin (AZ). Right panel—relative intensity versus treatment with increasing concentrations of AZ.
FIG. 23. Western blot quantification of APPswe-GFP in transfected Hek293T cells treated with increasing concentration of alfazosin (AZ).
We also studied Hek293T cells that were transfected with the amyloid precursor protein (APP) Swedish mutation tagged with GFP (APPswe-GFP). (See FIG. 22). After transfection, AZ (1-10 μM) was added for 24 hours. The GFP intensity without AZ treatment was set as 1.
AZ (1-100 μM) was added for 24 hours to Hek293T cells expressing APPswe-GFP. Then, cell lysates were collected for protein quantification by western blot. (See FIG. 23). The APP/actin ratio was plotted.

In the case of `COc1cc2nc(N3CCN(C(=O)C4COc5ccccc5O4)CC3)nc(N)c2cc1OC` (stereo not drawn) [doxazosin], the “tyrosine hydroxylase levels in MPTP-treated mice” value (MPTP-treated mice) is reported as “increased” and the glycolysis [1] is reported as “increased”.

In the case of `COc1cc2nc(N(C)CCCNC(=O)C3CCCO3)nc(N)c2cc1OC` (stereo not drawn) [alfuzosin], the “tyrosine hydroxylase levels in MPTP-treated mice” value (MPTP-treated mice) is reported as “increased”, the “ATP increase with rotenone” value ([2]; 5% oxygen, 60 hours, with rotenone) is reported as “abolished” and the ATP level ([2]; 5% oxygen, 60 hours, without rotenone) is reported as “increases”. For the same molecule, the FUS-GFP protein levels ([2]; FUS/actin, western) was “reduced”, the “aggregation of APPswe-GFP (GFP intensity)” value ([3]; AZ 1-10 μM) was “decrease” and the “APPswe-GFP levels (APP/actin ratio, western blot)” value ([3]; AZ 1-100 μM) was “reduces”. For the same molecule, the glycolysis [1] was “increased”.
